{
  "source": "patent US20260027116A1",
  "about": "“Methods of Treating Chronic Graft-Versus-Host Disease Following Allogeneic Hematopoietic Stem Cell Transplantation” (Kadmon Corporation, LLC, priority 2022, published 2026)",
  "key": {"[1]": {"experiment": "pharmacokinetics in specific populations (population pharmacokinetics)", "design": "species or system human", "settings": "in vivo"}, "UGT1A1": {"target": "T1, UGT1A1 (Homo sapiens, UniProt P22309)", "T1 sequence (P22309 26-533)": "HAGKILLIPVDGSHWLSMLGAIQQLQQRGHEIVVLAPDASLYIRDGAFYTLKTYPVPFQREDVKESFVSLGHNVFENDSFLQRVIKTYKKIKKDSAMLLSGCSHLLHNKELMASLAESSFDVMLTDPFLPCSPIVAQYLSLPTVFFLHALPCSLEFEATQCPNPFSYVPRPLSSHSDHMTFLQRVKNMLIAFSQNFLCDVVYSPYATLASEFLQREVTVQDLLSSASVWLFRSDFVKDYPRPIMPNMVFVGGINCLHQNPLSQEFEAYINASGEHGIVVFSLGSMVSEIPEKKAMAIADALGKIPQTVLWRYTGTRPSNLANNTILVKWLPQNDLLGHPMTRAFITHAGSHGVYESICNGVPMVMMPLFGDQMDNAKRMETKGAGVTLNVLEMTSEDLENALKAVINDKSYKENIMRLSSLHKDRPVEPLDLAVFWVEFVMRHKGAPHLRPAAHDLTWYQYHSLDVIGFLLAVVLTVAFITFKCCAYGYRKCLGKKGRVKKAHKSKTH", "experiment": "enzyme inhibition in vitro", "format": "in vitro ADME"}, "CYP2D6": {"target": "CYP2D6 (Homo sapiens, UniProt P10635)", "sequence (P10635 whole entry)": "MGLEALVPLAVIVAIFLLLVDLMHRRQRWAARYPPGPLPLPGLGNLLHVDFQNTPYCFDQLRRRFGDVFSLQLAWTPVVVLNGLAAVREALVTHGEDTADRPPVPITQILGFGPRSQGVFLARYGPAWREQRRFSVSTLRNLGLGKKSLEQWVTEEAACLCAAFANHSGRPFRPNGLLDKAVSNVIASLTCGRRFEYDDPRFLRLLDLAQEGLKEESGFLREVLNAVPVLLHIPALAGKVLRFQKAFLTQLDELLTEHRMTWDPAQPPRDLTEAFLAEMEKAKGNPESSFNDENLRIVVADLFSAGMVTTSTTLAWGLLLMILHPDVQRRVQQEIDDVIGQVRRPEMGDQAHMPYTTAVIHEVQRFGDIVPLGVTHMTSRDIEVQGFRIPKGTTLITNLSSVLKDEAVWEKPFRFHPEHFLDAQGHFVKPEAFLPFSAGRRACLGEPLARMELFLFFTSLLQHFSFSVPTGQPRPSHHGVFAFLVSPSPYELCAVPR", "experiment": "enzyme inhibition in vitro", "format": "in vitro ADME"}},
  "data": [
    {"smiles": "CC(C)NC(=O)COc1cccc(-c2nc(Nc3ccc4[nH]ncc4c3)c3ccccc3n2)c1", "note": "[Belumosudil, 2-{3-[4-(1H-indazol-5-ylamino)-2-quinazolinyl]phenoxy}-N-(propan-2-yl) acetamide]", "values": [
      {"measurement": "effect of age and body weight on pharmacokinetics (population pharmacokinetic data)", "setting": "[1]", "result": "no clinically meaningful effect"},
      {"measurement": "pharmacokinetic differences by age, sex, weight, mild to moderate renal impairment", "setting": "[1]", "result": "No clinically significant differences"},
      {"measurement": "inhibition of UGT1A1", "setting": "UGT1A1", "result": "inhibitor"},
      {"measurement": "inhibition of CYP2D6", "setting": "CYP2D6", "result": "inhibitor"}
    ]}
  ]
}
